The source of these data is patent publication US10005735B2, “Inhibitors of RPN11” (California Institute of Technology, priority 2015, dated 2018).

In test [1] the target is T1, Rpn11 (Homo sapiens (Human), UniProt O00487). Briefly: Rpn11 activity assay (fluorescence polarization, Ub4-pepOG cleavage by 26S proteasome). In kind it is biochemical. The settings on record: does not inhibit Csn5 or AMSH with the same potency as Rpn11. (In fluorescence polarisation assays a small probe gives low polarisation when free and higher when bound to something large.)
T1 sequence (O00487 whole entry, looked up): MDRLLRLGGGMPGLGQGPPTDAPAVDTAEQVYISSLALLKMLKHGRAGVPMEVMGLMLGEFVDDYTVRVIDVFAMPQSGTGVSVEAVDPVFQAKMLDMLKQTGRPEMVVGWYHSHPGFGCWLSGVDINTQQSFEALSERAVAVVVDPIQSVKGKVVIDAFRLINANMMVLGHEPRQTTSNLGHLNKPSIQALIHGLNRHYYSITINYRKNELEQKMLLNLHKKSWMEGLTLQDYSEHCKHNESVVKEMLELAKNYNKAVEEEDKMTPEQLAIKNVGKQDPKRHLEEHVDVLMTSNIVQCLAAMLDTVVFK

The target of test [2] is T1, Rpn11. The description is as above. The settings on record: Table 2; 1 mM DTT in assay reduces disulfides to monomeric active species. In kind it is biochemical. The source says:
Candidate compounds according to embodiments of the present invention were synthesized as described herein. […] In brief, this Rpn11 bioassay employs a fluorescent polarization readout based on the ability of the 26S proteasome to cleave the protein substrate including four tandem ubiquitin proteins fused to a peptide having a unique cysteine labeled with a fluorophore. Cleavage of this substrate by Rpn11 at the junction between the fourth ubiquitin and the peptide, releases the low molecular weight fluorescent peptide. Accordingly, inhibition of fluorescence correlates with inhibition of Rpn11. Inhibition is reported as the half maximal inhibitory concentration (IC50) for the candidate compound.
Rpn11 Activity Assay. […] In brief, in order to measure the Rpn11 activity, a synthetic peptide substrate, termed Ub4-pepOG, was engineered. […] Peptide substrate Ub4-pepOG consists of only 30 amino acids and therefore the decrease of polarization is mainly from deubiquitination but not the proteolysis of the peptide. Fluorescence polarization assay was performed in a low-volume 384 well solid black plate where the components are added in the follow sequence: 1) 5 μl compound in 3% DMSO or 3% DMSO control 2) 5 μl 26S proteasome (Enzo Life Sciences Inc, NY). […] Fluorescence polarization is measured using a PHERAstar (BMG labtech, Ortenberg, Germany) plate reader with excitation of 480 nm and emission of 520 nm filter set. […] Rpn11 activity was normalized to DMSO control and fitted using does-response curve.

Test [3] addresses AMSH (Homo sapiens (Human), UniProt O95630). Briefly: AMSH activity assay (DiUb^K63TAMRA cleavage, fluorescence). The class given is biochemical. The settings on record: Table 2. From the text: AMSH Activity Assay. AMSH is known to selectively cleave ubiquitin chains in which the ubiquitins are joined via K63 of the proximal ubiquitin linked by an isopeptide bond to the carboxy terminus of the distal ubiquitin. […] In brief, DiUb^K63TAMRA was labeled with quench pairs TAMRA/QXL.

Test [4] has as its target Csn5 (Homo sapiens (Human), UniProt Q92905). Briefly: Csn5 activity assay (fluorescence polarization, SCF^skp2-Nedd8OG, COP9 Signalosome Complex). In kind it is biochemical. The settings on record: Table 2. As for the experimental part: Csn5 Activity Assay. […] In brief, a fluorescent substrate termed SCF^skp2-Nedd8OG was produced to measure CSN5 activity in vitro. This assay measures the decrease in fluorescence polarization due to the decrease in apparent molecular weight of Oregon Green (OG) fluorophore (from the ˜175 kDa substrate to ˜9 kDa Nedd8OG) as a result of Csn5-mediated cleavage of the isopeptide bond that links Nedd8OG to SCF^Skp2. The assay was performed in a low-volume 384 well solid black plate comprising equal volumes of compound, substrate (SCF^skp2-Need8OG) and enzyme (purified COP9 Signalosome Complex, CSN). Fluorescence polarization was recorded using the same setting as for the Rpn11 activity assay.

For test [5], the system named is Ub^G76V-GFP. Briefly: Reporter degradation assay in Hela cells expressing Ub^G76V-GFP. The class given is cell-based. Conditions: after MG132 removal, cycloheximide chase. As for the experimental part: Characterization of the Compound Activity in Cells. […] After 4 hours, MG132 was removed and a cycloheximide (CHX) chase was initiated +/− different concentrations of test compound and the rate of reporter degradation was evaluated by monitoring GFP fluorescence by high throughput microscopy. The rate of fluorescence decrease was normalized to DMSO control and analyzed using does-response equation.

AMSH, sequence (O95630 whole entry): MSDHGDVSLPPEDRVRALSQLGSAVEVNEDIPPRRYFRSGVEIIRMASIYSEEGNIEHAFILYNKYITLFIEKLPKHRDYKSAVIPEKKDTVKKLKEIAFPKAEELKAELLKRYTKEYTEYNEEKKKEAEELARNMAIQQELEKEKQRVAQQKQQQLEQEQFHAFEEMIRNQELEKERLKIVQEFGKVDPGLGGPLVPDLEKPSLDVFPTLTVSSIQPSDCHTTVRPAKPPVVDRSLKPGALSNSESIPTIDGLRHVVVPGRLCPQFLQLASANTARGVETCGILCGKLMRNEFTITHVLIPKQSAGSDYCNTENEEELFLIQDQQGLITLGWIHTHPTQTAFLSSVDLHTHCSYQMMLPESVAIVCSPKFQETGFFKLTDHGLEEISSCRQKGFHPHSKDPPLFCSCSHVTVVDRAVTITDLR

By IC50 is commonly meant the concentration that inhibits the measured activity by half. A low value points to inhibition by little substance. Turning to `NC(=O)c1cnc2c(SSc3cccc4cc(C(N)=O)cnc34)cccc2c1` [Compound 1, 8,8′-Disulfanediylbis(quinoline-3-carboxamide)], the “specificity for Rpn11 versus Csn5 and/or AMSH (in words)” value in test [1] is on record as “specific inhibitors of Rpn11”. Moreover, the half-maximal inhibitory concentration (IC50) worked out at 1000 nM in test [2], 1200 nM in test [3], 15 µM in test [4] and 1200 nM in test [5] (Homo sapiens).

Turning to `O=C(NCc1ccncc1)c1cnc2c(SSc3cccc4cc(C(=O)NCc5ccncc5)cnc34)cccc2c1` [Compound 15, 8,8′-Disulfanediylbis(N-(pyridin-4-ylmethyl)quinoline-3-carboxamide)], the “specificity for Rpn11 versus Csn5 and/or AMSH (in words)” value in test [1] was “specific inhibitors of Rpn11”. The IC50 was 200 nM in test [2], 500 nM in test [3], 7 µM in test [4] and above 10000 nM in test [5].

`O=C(NCc1ccc(F)cc1)c1cnc2c(SSc3cccc4cc(C(=O)NCc5ccc(F)cc5)cnc34)cccc2c1` [Compound 17, 8,8′-Disulfanediylbis(N-(4-fluorobenzyl)quinoline-3-carboxamide)]: in test [1], the “specificity for Rpn11 versus Csn5 and/or AMSH (in words)” value was “specific inhibitors of Rpn11”. For the same compound, the figures for the half-inhibitory concentration (IC50) in test [3], in test [4] and in test [5] (Homo sapiens) were 850 nM, 18 µM and above 10000 nM, respectively.

As for `O=C(NCc1ccc(C(F)(F)F)cc1)c1cnc2c(SSc3cccc4cc(C(=O)NCc5ccc(C(F)(F)F)cc5)cnc34)cccc2c1` [Compound 18, 8,8′-Disulfanediylbis(N-(4-(trifluoromethyl)benzyl)quinoline-3-carboxamide)], in test [1], the “specificity for Rpn11 versus Csn5 and/or AMSH (in words)” value is on record as “specific inhibitors of Rpn11”. The 50% inhibitory concentration (IC50) in test [2] is 700 nM; in test [3], 3400 nM; in test [4] it was above 100 µM; in test [5], above 10000 nM.

On to `COc1ccc(CNC(=O)c2cnc3c(SSc4cccc5cc(C(=O)NCc6ccc(OC)cc6)cnc45)cccc3c2)cc1` [Compound 19, 8,8′-Disulfanediylbis(N-(4-methoxybenzyl)quinoline-3-carboxamide)], for which the “specificity for Rpn11 versus Csn5 and/or AMSH (in words)” value in test [1] is reported as “specific inhibitors of Rpn11”. Further, the IC50 was 600 nM in test [3], 0.5 µM in test [4] and above 10000 nM in test [5] (Homo sapiens).

`O=C(NCCc1cccs1)c1ccnc2c(SSc3cccc4c(C(=O)NCCc5cccs5)ccnc34)cccc12` [Compound 24, 8,8′-disulfanediylbis(N-(2-(thiophen-2-yl)ethyl)quinoline-4-carboxamide)]: the “specificity for Rpn11 versus Csn5 and/or AMSH (in words)” value in test [1] was “specific inhibitors of Rpn11”. Moreover, the IC50 in test [2] worked out at 700 nM; in test [3], 1000 nM; in test [4] it was 7.3 µM; in test [5], 1100 nM.

Regarding `O=C(NCCc1ccco1)c1ccnc2c(SSc3cccc4c(C(=O)NCCc5ccco5)ccnc34)cccc12` [Compound 26, 8,8′-disulfanediylbis(N-(2-(furan-2-yl)ethyl)quinoline-4-carboxamide)], in test [1], the “specificity for Rpn11 versus Csn5 and/or AMSH (in words)” value was “specific inhibitors of Rpn11”. The IC50 in test [2] was found to be 1000 nM; in test [3], 2900 nM; in test [4], 8 µM; in test [5] (Homo sapiens) it was 1600 nM.
